Series [1] has as its target antibody serum to synthetic sCT. The series is described as follows: Radioimmunoassay with antibodies to synthetic sCT, inhibition of [125I]sCT binding. The arrangement: species or system goat. As to the method:
The concentration of hCT 2 is determined radioimmunologically in a concentration series. 10, 20, 50 and 100 μl, respectively, of the HPLC fractions, which have been aftertreated as described above, are preincubated for 3 days at 4° C. together with 100 μl of antibody serum to synthetic sCT (Sandoz AG, Basle, Switzerland) in an immunoassay buffer with a total volume of 300 μl (immunoassay buffer: 0.05M phosphate, pH 7.5, 10% of human serum containing no detectable amounts of immunoreactive sCT), and, after the addition of 200 μl of assay buffer having 15,000 dpm of [^125 I]sCT (specific activity 600 Ci/mmol), subsequently incubated for a further 3 days at 4° C. The labelling of sCT with ^125 I is performed with Chloramin-T (Eastman Kodak, Rochester, USA) essentially according to the method of W. M. Hunter and F. C.
The above-mentioned antibody serum is obtained as follows: The antibodies are produced in a 25 kg goat after primary immunisation with 200 μg of sCT (see above) as antigen, and reimmunisation with 100 μg of the same antigen 30 days after the primary immunisation. For immunisation, sCT is dissolved in 0.01M acetic acid (1 mg/ml), the solution is mixed with 2 percent by weight of solid aluminium hydroxide (Alhydrogel, Superfos Export Co. a/s Copenhagen, Denmark) and the mixture is suspended in an equal volume of complete Freund's adjuvant (Difco Laboratories, Detroit, Mich., USA). This suspension is produced in an Omnimixer (Sorvall) at 4° C. at the maximum mixing rate. 0.5-1.0 ml of suspension is drawn up into disposable syringes (Primo 1 ml, Asik I/S, Denmark), and administered on each leg subcutaneously in the region of the subaxillary lymph nodes. Ten days after the abovementioned reimmunisation, 50-80 ml of blood containing the desired antibodies against sCT are withdrawn from the jugular vein into heparinised tubes, and the plasma obtained is stored at -20° C. in 3-5 ml portions.
(§1) The quantity of antibodies obtained is estimated by measurement of the binding of the withdrawn plasma to [^125 I] sCT. Antibody-bound and free [^125 I]sCT are separated by means of charcoal coated with dextran, in the main according to the method of V. Herbert, K.-S. Lau, C. W. Gottlieb and S. J. Bleicher [J. Clin. Endocrinol. Metab. 25, 1375-1384 (1965)]. The same method is used for the detection of antibodies in human serum.

Series [2] can be described thus: Detection of antibodies able to react with sCT in human serum (binding to [125I]sCT). As to conditions: verified with radioimmunoassay.
Text: (c) in the human serum no initiation of the formation of detectable amounts of antibodies which are able to react with sCT, the binding to [^125 I]sCT having a specific activity of 600 Ci/mmol being used for verfying this evidence;
The substance hCT 2 differs from the known hCT in the aforementioned HPLC system by virtue of a clearly different retention time; on the other hand, hCT 2 has a retention time practically identical to that of sCT. In the aforementioned gel system, the elution volume of hCT 2 differs from that of hCT, but is practically identical to that of sCT. These facts indicate that hCT 2 with respect to the amino acid composition, even though not necessarily with respect to the amino acid sequence, is more closely related to sCT than to hCT. With regard to immunology, however, hCT 2 differs greatly from sCT.
as §1

SMILES strings stand for the structures.

With `CC[C@H](C)[C@H](NC(=O)[C@H](C)NC(=O)[C@@H](NC(=O)[C@H](CCC(N)=O)NC(=O)[C@@H]1CCCN1C(=O)[C@H](Cc1ccccc1)NC(=O)[C@@H](NC(=O)[C@H](Cc1c[nH]cn1)NC(=O)[C@H](Cc1ccccc1)NC(=O)[C@H](CCCCN)NC(=O)[C@H](CC(N)=O)NC(=O)[C@H](Cc1ccccc1)NC(=O)[C@H](CC(=O)O)NC(=O)[C@H](CCC(N)=O)NC(=O)[C@@H](NC(=O)[C@H](Cc1ccc(O)cc1)NC(=O)[C@@H](NC(=O)CNC(=O)[C@H](CC(C)C)NC(=O)[C@H](CCSC)NC(=O)[C@@H]1CSSC[C@H](N)C(=O)NCC(=O)N[C@@H](CC(N)=O)C(=O)N[C@@H](CC(C)C)C(=O)N[C@@H](CO)C(=O)N[C@@H]([C@@H](C)O)C(=O)N1)[C@@H](C)O)[C@@H](C)O)[C@@H](C)O)[C@@H](C)O)C(=O)NCC(=O)N[C@H](C(=O)NCC(=O)N[C@@H](C)C(=O)N1CCC[C@H]1C(N)=O)C(C)C` [hCT, human calcitonin-(1-32)], in series [1] (antibody final dilution 1:25,000), the “amount not giving comparable (half maximum) inhibition of the binding of [125I]sCT to the antibodies” value is over 10 µg.

In the case of `CC(C)C[C@H](NC(=O)[C@H](CCCCN)NC(=O)CNC(=O)[C@H](CC(C)C)NC(=O)[C@@H](NC(=O)[C@@H]1CSSC[C@H](N)C(=O)N[C@@H](CO)C(=O)N[C@@H](CC(N)=O)C(=O)N[C@@H](CC(C)C)C(=O)N[C@@H](CO)C(=O)N[C@@H]([C@@H](C)O)C(=O)N1)C(C)C)C(=O)N[C@@H](CO)C(=O)N[C@@H](CCC(N)=O)C(=O)N[C@@H](CCC(=O)O)C(=O)N[C@@H](CC(C)C)C(=O)N[C@@H](Cc1c[nH]cn1)C(=O)N[C@@H](CCCCN)C(=O)N[C@@H](CC(C)C)C(=O)N[C@@H](CCC(N)=O)C(=O)N[C@H](C(=O)N[C@@H](Cc1ccc(O)cc1)C(=O)N1CCC[C@H]1C(=O)N[C@@H](CCCNC(=N)N)C(=O)N[C@H](C(=O)N[C@@H](CC(N)=O)C(=O)N[C@H](C(=O)NCC(=O)N[C@@H](CO)C(=O)NCC(=O)N[C@H](C(=O)N1CCC[C@H]1C(N)=O)[C@@H](C)O)[C@@H](C)O)[C@@H](C)O)[C@@H](C)O` [sCT, salmon calcitonin-(1-32)], the “formation of antibodies in the human serum” value in series [2] was “produces in the human serum an antibody response”. In addition, the “half maximum inhibition of the binding of [125I]sCT to the antibodies” value in series [1] (antibody final dilution 1:25,000, 15,000 dpm [125I]sCT, 4° C., amount per tube) is recorded as “about 100 pg”; in series [1] (same value given in pmol), 0.03 pmol. In addition, in series [1] (lower concentration for sCT), the “concentration at which the antibodies react with sCT compared with hCT, which they do not recognise” value is recorded as ≤ 10^5 fold.
